One series deals with SARS-CoV-2. Briefly: Antiviral activity on SARS-CoV-2, viral replication (YFP) assay. As to conditions: Severe acute respiratory syndrome coronavirus 2, read-out: EC50 range. Format: cell-based.
A short description of series [1]: in vitro. As to conditions: human, microsomes.
A short description of series [2]: in vivo. As to conditions: CC7BL/6J, mouse, po, 5 mg/kg. As to the method:
The pharmacokinetics of the compounds of the present invention was evaluated in 3 male and 3 female mice (CC7BL/6J, 8 week old) after oral cassette dosing. Dose was 5 mg/kg, application volume was 5 mL/kg and vehicle was 5% Solutol, 95% NaCl solution (at 0.9% saline concentration). At each designated time point (0, 0.25, 0.5, 1, 2, 4, 8 h after dosing), 20 μL whole blood were collected from the tail vein into Li-heparin tubes, frozen on dry ice within 1-2 minutes of sampling and stored at −20° C. until processed for LC-MS analysis.

Series [3] is described as follows: in vitro. As to conditions: male, rat, microsomes.
A short description of series [4]: in vivo. Particulars: Han Wistar, rat. The protocol: Rats are provided with a catheter in the jugular vein (2-3 days prior to blood sampling). At each designated time point (0, 1, 2, 4, 8 and 24 h after dosing), 100 μL blood were collected into Li-heparin tubes, stored on ice until centrifugation (10 minutes at 3000 g, 4° C.) and plasma was prepared within 45 min after collection, frozen at −20° C. and stored at this temperature until processed for LC-MS analysis.

As for `[2H]C([2H])([2H])Oc1cccc(-c2ccc(NC(=O)C3=C(C(=O)O)CCC3)c3cnccc23)c1` [12/3], the concentration giving a half-maximal response (EC50) in the series with SARS-CoV-2 lay within 25 to 50 µM.

The molecule `[2H]C([2H])([2H])Oc1cccc(-c2ccc(NC(=O)C3=C(C(=O)O)CCC3)c(F)c2)c1` [Example 1, 2-((3-Fluoro-3′-(methoxy-d3)-[1,1′-biphenyl]-4-yl)carbamoyl)cyclopent-1-ene-1-carboxylic Acid] registered an intrinsic metabolic clearance (microsomal CLint) in “in vitro [1]” (both) of 0.96 µL/min/mg. In addition, the microsomal CLint in “in vitro [1]” (female) was found to be 5.02 µL/min/mg. In the series “in vitro [1]” (male), this molecule returned an intrinsic clearance (microsomal CLint) of 7.69 µL/min/mg. In the series “in vivo [2]” (female), this molecule came in with an AUC of 5740 ng·h/mL, a peak concentration (Cmax) of 3440 ng/mL and a half-life of 1.6 h. For the same molecule, in “in vivo [2]” (male), the AUC was found to be 5110 ng·h/mL, the concentration peaked (Cmax) at 4110 ng/mL and the half-life came to 1.7 h. Also, the intrinsic clearance (microsomal CLint) in “in vitro [3]” is 13.4 µL/min/mg. Besides, in the series “in vivo [4]” (female, iv, 1 mg/kg), the “% AUCextra” value was determined as 13%, the area under the curve AUC(0-inf) stood at 80700 ng·h/mL, the AUC(0-t) was 66200 ng·h/mL and the C0 amounted to 7010 ng/mL. Also, in “in vivo [4]” (female, iv, 1 mg/kg), the Cz was 943 ng/mL, the Vz/f amounted to 0.017 L/kg, the t1/2z came to 9.9 h and the tz is 24 h. Also, in “in vivo [4]” (female, po), the bioavailability turned out to be 75.3%. In the series “in vivo [4]” (female, po, 5 mg/kg), the “% AUCextra” value came to 17%, the AUC(0-inf) amounted to 291000 ng·h/mL, the exposure AUC(0-t) was determined as 249000 ng·h/mL and the CL/F was 3.77 mL/min/kg. Further, in “in vivo [4]” (female, po, 5 mg/kg), the peak concentration (Cmax) was 19700 ng/mL, the Cz worked out at 3536 ng/mL, the time of peak concentration (Tmax) was found to be 2 h and the Vd/F worked out at 0.016 L/kg. Further, in the series “in vivo [4]” (female, po, 5 mg/kg), the t1/2z came to 9.1 h and the tz is recorded as 24 h. For the same molecule, in the series “in vivo [4]” (male, iv, 1 mg/kg), the “% AUCextra” value was 22%, the AUC(0-inf) came out at 47900 ng·h/mL, the area under the curve AUC(0-t) was found to be 42600 ng·h/mL and the C0 was found to be 5540 ng/mL. In “in vivo [4]” (male, iv, 1 mg/kg), this molecule came in with a Cz of 437 ng/mL, a Vz/f of 0.01 L/kg, a t1/2z of 7.9 h and a tz of 24 h. This molecule returned a bioavailability in “in vivo [4]” (male, po) of 86%. For the same molecule, in the series “in vivo [4]” (male, po, 5 mg/kg), the “% AUCextra” value was 24%, the AUC(0-inf) was found to be 210000 ng·h/mL, the AUC(0-t) was 183000 ng·h/mL and the CL/F is 3.82 mL/min/kg. Further, in “in vivo [4]” (male, po, 5 mg/kg), the maximum concentration (Cmax) is 14600 ng/mL, the Cz turned out to be 1525 ng/mL, the time of peak concentration (Tmax) stood at 2 h and the Vd/F was 0.008 L/kg. In “in vivo [4]” (male, po, 5 mg/kg), this molecule yielded a t1/2z of 6.6 h and a tz of 24 h.

As for `[2H]C([2H])([2H])Oc1cccc(-c2ccc(NC(=O)C3=C(C(=O)O)CCC3)c3ccccc23)c1` [12/4], the EC50 with SARS-CoV-2 fell in the range of 10 to 25 µM.

Molecule `[2H]c1cc([2H])c(-c2ccc(NC(=O)C3=C(C(=O)O)CCC3)c(F)c2)c([2H])c1OC([2H])([2H])[2H]` [Example 2, 2-((3-Fluoro-3′-(methoxy-d3)-[1,1′-biphenyl]-4-yl-2′,4′,6′-d3)carbamoyl)cyclopent-1-ene-1-carboxylic Acid] gave a microsomal CLint in the series “in vitro [1]” (both) of 0.74 µL/min/mg. Moreover, in the series “in vitro [1]” (female), the intrinsic clearance (microsomal CLint) came out at 5.8 µL/min/mg. In “in vitro [1]” (male), this molecule showed a microsomal CLint of 7.67 µL/min/mg. For the same molecule, in the series “in vivo [4]” (female, iv, 1 mg/kg), the “% AUCextra” value was determined as 13%, the area under the curve AUC(0-inf) worked out at 79100 ng·h/mL, the AUC(0-t) was determined as 64700 ng·h/mL and the C0 was determined as 7980 ng/mL. Further, in “in vivo [4]” (female, iv, 1 mg/kg), the Cz was found to be 915 ng/mL, the Vz/f is 0.017 L/kg, the t1/2z was found to be 10.0 h and the tz was 24 h. The molecule also gave a bioavailability in “in vivo [4]” (female, po) of 83.1%. In the series “in vivo [4]” (female, po, 5 mg/kg), the “% AUCextra” value was found to be 16%, the area under the curve AUC(0-inf) was found to be 320000 ng·h/mL, the AUC(0-t) is 269000 ng·h/mL and the CL/F was 3.5 mL/min/kg. Further, in “in vivo [4]” (female, po, 5 mg/kg), the peak level (Cmax) was 21300 ng/mL, the Cz worked out at 3892 ng/mL, the time to peak (Tmax) turned out to be 2 h and the Vd/F turned out to be 0.017 L/kg. In the series “in vivo [4]” (female, po, 5 mg/kg), the t1/2z was 9.3 h and the tz turned out to be 24 h. For the same molecule, in the series “in vivo [4]” (male, iv, 1 mg/kg), the “% AUCextra” value was 23%, the AUC(0-inf) came out at 45200 ng·h/mL, the AUC(0-t) was 40400 ng·h/mL and the C0 turned out to be 5310 ng/mL. For the same molecule, in “in vivo [4]” (male, iv, 1 mg/kg), the Cz came out at 422 ng/mL, the Vz/f worked out at 0.01 L/kg, the t1/2z is given as 7.6 h and the tz came to 24 h. Also, the bioavailability in the series “in vivo [4]” (male, po) was determined as 100%. For the same molecule, in the series “in vivo [4]” (male, po, 5 mg/kg), the “% AUCextra” value is 22%, the area under the curve AUC(0-inf) is 233000 ng·h/mL, the area under the curve AUC(0-t) is 202000 ng·h/mL and the CL/F is 3.43 mL/min/kg. In the series “in vivo [4]” (male, po, 5 mg/kg), the maximum concentration (Cmax) is 16000 ng/mL, the Cz was determined as 1657 ng/mL, the time to peak (Tmax) worked out at 2 h and the Vd/F was found to be 0.008 L/kg. Moreover, in “in vivo [4]” (male, po, 5 mg/kg), the t1/2z is 6.6 h and the tz is on record as 24 h.

With `[2H]C([2H])([2H])C([2H])([2H])Oc1cccc(-c2cc(F)c(NC(=O)C3=C(C(=O)O)CCC3)c(F)c2)c1` [1/3], the EC50 in the series with SARS-CoV-2 was below 10 µM.

In the case of `[2H]C([2H])([2H])Oc1cccc(-c2cc(F)c(NC(=O)C3=C(C(=O)O)CSC3)c(F)c2)c1` [Example 10, 4-((3,5-Difluoro-3′-(methoxy-d3)-[1,1′-biphenyl]-4-yl)carbamoyl)-2,5-dihydro-thiophene-3-carboxylic Acid], in the series with SARS-CoV-2, the EC50 was in the range of 10 to 25 µM.

With `[2H]C([2H])([2H])Oc1cc(-c2cc(F)c(NC(=O)C3=C(C(=O)O)CCC3)c(F)c2)ccn1` [1/9], the EC50 with SARS-CoV-2 fell in the range of 25 to 50 µM.

Take `[2H]c1cc([2H])c(-c2c(F)c(F)c(NC(=O)C3=C(C(=O)O)CCC3)c(F)c2F)c([2H])c1OC(F)(F)F` [Example 3, 2-((2,3,5,6-Tetrafluoro-3′-(trifluoromethoxy)-[1,1′-biphenyl]-4-yl-2′,4′,6′-d3)carbamoyl)cyclopent-1-ene-1-carboxylic Acid]: the concentration giving a half-maximal response (EC50) with SARS-CoV-2 is below 10 µM.

Consider `[2H]C([2H])([2H])Oc1cccc(-c2cnc(NC(=O)C3=C(C(=O)O)CCC3)c(F)c2)c1` [Example 12, 2-((3-Fluoro-5-(3-(methoxy-d3)phenyl)pyridin-2-yl)carbamoyl)cyclopent-1-ene-1-carboxylic Acid], for which, in the series with SARS-CoV-2, the EC50 was below 10 µM.

For `[2H]C([2H])([2H])Oc1cccc(-c2ccc(NC(=O)C3=C(C(=O)O)CCC3)c3c2CCC3)c1` [Example 12/1], the EC50 in the series on SARS-CoV-2 was below 10 µM.

As for `[2H]C([2H])([2H])Oc1ccccc1-c1cc(F)c(NC(=O)C2=C(C(=O)O)CCC2)c(F)c1` [1/4], the EC50 in the series with SARS-CoV-2 is below 10 µM.

Turning to `[2H]c1cc([2H])c(-c2ccc(NC(=O)C3=C(C(=O)O)CCC3)c(F)c2)c([2H])c1O` [Example 8, 2-((3-Fluoro-3′-hydroxy-[1,1′-biphenyl]-4-yl-2′,4′,6′-d3)carbamoyl)cyclopent-1-ene-1-carboxylic Acid], the EC50 with SARS-CoV-2 lay in the range of 25 to 50 µM.

As to `[2H]C([2H])([2H])Oc1cccc(-c2cc(F)c(NC(=O)C3=C(C(=O)O)CCC3)c(F)c2)n1` [1/10], the EC50 in the series with SARS-CoV-2 is 10 to 25 µM.

In the case of `[2H]C([2H])([2H])Oc1nc(-c2cc(F)c(NC(=O)C3=C(C(=O)O)CCC3)c(F)c2)cs1` [1/8], the EC50 in the series on SARS-CoV-2 lay within 25 to 50 µM.

For the molecule `[2H]C([2H])([2H])Oc1cccc(-c2cc(F)c(NC(=O)C3=C(C(=O)O)COC3)c(F)c2)c1` [Example 11, 4-((3,5-Difluoro-3′-(methoxy-d3)-[1,1′-biphenyl]-4-yl)carbamoyl)-2,5-dihydrofuran-3-carboxylic Acid], the EC50 with SARS-CoV-2 is above 50 µM.

For the molecule `[2H]c1c([2H])c(F)c([2H])c(-c2cc(F)c(NC(=O)C3=C(C(=O)O)CCC3)c(F)c2)c1[2H]` [1/7], the 50% effective concentration (EC50) with SARS-CoV-2 is below 10 µM.

For `[2H]C([2H])([2H])Oc1cccc(-c2c(F)c(F)c(NC(=O)C3=C(C(=O)O)CCC3)c(F)c2F)c1` [1/2], the half-maximal effective concentration (EC50) with SARS-CoV-2 was below 10 µM.

In general, EC50 refers to the concentration needed to bring the measured effect to its halfway point. For orientation: microsomal CLint means the rate of metabolic loss divided by the concentration. As a reminder, the AUC is the area under the concentration-time curve, a measure of exposure. Lower therefore signals less exposure. In general, Cmax refers to the highest concentration seen after dosing. Usually half-life stands for the time in which the quantity being followed falls by half. By AUC(0-inf) is commonly meant total exposure, with the tail of the curve extrapolated. Read a low AUC(0-inf) as less exposure. As a reminder, the AUC(0-t) is the area under the concentration-time curve up to a stated or last time point. As usually defined, the bioavailability is the share of a dose that reaches the circulation, judged against a reference dose that is usually intravenous. A high value points to much systemic uptake. The term CL/F denotes clearance divided by bioavailability, as obtained after extravascular dosing. Broadly, the Tmax is the time at which the peak concentration occurs. For orientation: Vd/F means the volume of distribution divided by bioavailability.

Source of the values: patent US20240199535A1, “DEUTERATED DHODH INHIBITORS” (priority 2021, published 2024).
